Publication PMC5906745, “Silencing of Chemosensory Protein Gene NlugCSP8 by RNAi Induces Declining Behavioral Responses of Nilaparvata lugens” (Frontiers in Physiology, 2018)
Entries after “also recorded” stand apart in the source; their conditions may differ. Read-outs that look alike come from different tables or passages of the source.

How the values were obtained:
[1] = target: NlugCSP8 (Nilaparvata lugens, UniProt B7TVH4); assay: Fluorescence competitive ligand binding assay with 1-NPN probe
Chain of NlugCSP8 (B7TVH4 entry or part of it): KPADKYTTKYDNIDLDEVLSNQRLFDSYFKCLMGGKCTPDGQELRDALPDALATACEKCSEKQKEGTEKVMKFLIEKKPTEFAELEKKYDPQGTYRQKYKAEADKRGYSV
Method: The recombinant pET-30a/CSP8 expression plasmid was transformed into Escherichia coli BL21 (DE3) competent cells. After DNA sequencing, a single positive clone was grown in 10 mL Luria-Bertani (LB) medium containing kanamycin (50 μg/mL) with shaking overnight at 220 rpm and 37°C. The culture was diluted to 2 L LB medium (supplemented with 50 μg/mL kanamycin) and grown at 37°C with shaking at 220 rpm until the culture reached the optical density value of ~0.6–0.7 at 600 nm. The recombinant protein expression was induced by the addition of 2 mM IPTG (Isopropyl β-D-1-thiogalactopyranoside), followed by culturing for 4 h at 37°C. The bacterial cells were harvested by centrifugation (10,000 rpm, 10 min) and sonicated. The expressed protein presented in the supernatant as a soluble form. Then, NlugCSP8 purification was performed using a Ni-ion affinity chromatography column (GE Healthcare, Uppsala, Sweden). His-tag was removed from the recombinant protein with the addition of recombinant bovine enterokinase (EK) in the eluted fractions of protein, followed by 16 h incubation at 25°C. After running the digested protein back through the Ni-ion affinity chromatography column, the tag-free protein was obtained in the flow through fraction. Protein expression and purification steps were assessed by 15% SDS-PAGE (sodium dodecyl sulfate-polyacrylamide gel electrophoresis). Finally, purified protein was dialyzed in Tris buffer (pH 5.0) and (pH 7.4). The concentration of purified protein was determined prior to perform ligand-binding specificities of NlugCSP8 with 25 selected ligands at pH 5.0 and pH 7.4.
Fluorescence-based ligand binding assays were performed based on the method described by Sun X. et al. ([2016]). According to previous studies about the rice-specific volatiles (Fujii et al., [2010]; He et al., [2011]; Yang et al., [2014]; Zhang et al., [2014]), 25 potential ligands were selected for the fluorescence binding assays (Table 1). All the ligands used in this study were purchased from Sigma-Aldrich (St. Louis, MO, USA) and stored according to manufacturer instructions. The ligand binding affinity for various ligands was determined by using the 1-NPN (N-phenyl-1-naphthylamine) as a fluorescent probe. RF-5301PC fluorimeter (Shimadzu, Kyoto, Japan) was used for fluorescence binding assay at 25°C with 10 nm slit width and 1 cm light path quartz cuvette for emission and excitation. The 1-NPN/NlugCSP8 mixture was excited using an excitation wavelength of 337 nm, and the fluorescence intensity was recorded between 350 and 600 nm following an established protocol (Ban et al., [2002]). The 1-NPN and all the potential ligands were prepared in spectrophotometric-grade methanol. The binding constant for 1-NPN was measured by adding aliquots of 1 mM 1-NPN into a 2 μM solution of protein in 30 mM Tris-HCL at room temperature. […] For each test, fluorescence measurement was conducted after the reaction was incubated for 2 min at room temperature (Liu et al., [2015]). Three independent measurements were used to obtain the binding data. 1-NPN/NlugCSP8 dissociation constants (Kd) were calculated from Scatchard plots of the binding data using the Prism 5 software (GraphPad, La Jolla, CA, USA). The curves were linearized using the Scatchard plot program (Campanacci et al., [2001]). The dissociation constants of the competitors were determined by using the corresponding IC50-values according to the equation Ki = [IC50]/ (1+[1-NPN]/K1−NPN), where IC50 represents the concentration of ligand which decreases the fluorescence intensity of [1-NPN], [1-NPN] is the free concentration of 1-NPN and K1−NPN is the dissociation constant of the NlugCSP8/1-NPN complex (Ban et al., [2003]; Tian and Zhang, [2016]). For the reader's convenience, data were recalculated as 1/ki × 1,000, for which a larger value designates a stronger ligand binding affinity.

[2] = system: NlugCSP7; parameters: method as in Yang et al., 2014; settings: ref Yang et al., 2014; cited from earlier work
[3] = system: Nilaparvata lugens; assay: H-tube olfactometer behavioral assay; format: in vivo; settings: macropterous adults, vs liquid paraffin
Method: BPH behavior responses to different ligands were tested in an H-tube olfactometer similar to which previously used by Yi et al. ([2018]) in our laboratory. The H-tube olfactometer mainly consists of two glass tubes (arms) with gauze at its top end. These two glass tubes were connected by another tube (5 cm in diameter, 20 cm long with a hole of 1 cm in the middle for releasing BPH). Twenty macropterous (10 from each sex) BPH adults were introduced into the H-tube and the number of BPH was counted at 30 min after their introduction. Liquid paraffin was used as in control arm. Rubber septa were absorbed in the liquid paraffin and solutions of the odor molecules to be tested (liquid paraffin+ different concentration of tested volatile) and placed at room temperature. After 24 h, one rubber septa from each control and tested volatile was put in each glass arm. After one replication, rubber septa were changed and three treatments (1, 10, and 100 μl/mL) of tested volatiles against macropterous adults were tested in eight replications. After four replications, the H-tube olfactometer was washed with 75% alcohol and the liquid paraffin rubber septa were placed in another arm to complete the other four replications. The impact of NlugCSP8-dsRNA on the preference of N. lugens was also tested by H-tube olfactometer assays. Corresponding control experiments without dsRNA injection were performed to investigate whether the preference of N. lugens was affected by volatile concentration change. Three treatments of BPH (NlugCSP8-dsRNA injected, GFP-dsRNA injected, and without injection) were tested in four replications. As in case of dsRNA injected insects, the concentration of volatiles that have highly significant attractive results on non-injected insects used for dsCSP8 and dsGFP injected insects. In order to evaluate the best RNAi effect, mRNA levels of NlugCSP8-dsRNA injected insects were determined and compared with the GFP-dsRNA-injected and non-injected insects, prior to H-tube olfactometer bioassay. Based on the findings of previous step, we re-inject the BPH and the individuals with the best post-injection RNAi effect after 7-days, were used in the H-tube olfactometer bioassay. Bioassays were performed under controlled conditions at 26 ± 2°C and 75 ± 5% relative humidity.

[4] = system: Nilaparvata lugens; assay: H-tube olfactometer assay after RNAi (dsRNA-injected BPH); format: in vivo; settings: 10 μl/mL (nerolidol), 100 μl/mL (hexanal); compared with controls
Method: BPH behavior responses to different ligands were tested in an H-tube olfactometer similar to which previously used by Yi et al. ([2018]) in our laboratory. The H-tube olfactometer mainly consists of two glass tubes (arms) with gauze at its top end. These two glass tubes were connected by another tube (5 cm in diameter, 20 cm long with a hole of 1 cm in the middle for releasing BPH). Twenty macropterous (10 from each sex) BPH adults were introduced into the H-tube and the number of BPH was counted at 30 min after their introduction. Liquid paraffin was used as in control arm. Rubber septa were absorbed in the liquid paraffin and solutions of the odor molecules to be tested (liquid paraffin+ different concentration of tested volatile) and placed at room temperature. After 24 h, one rubber septa from each control and tested volatile was put in each glass arm. After one replication, rubber septa were changed and three treatments (1, 10, and 100 μl/mL) of tested volatiles against macropterous adults were tested in eight replications. […] In order to evaluate the best RNAi effect, mRNA levels of NlugCSP8-dsRNA injected insects were determined and compared with the GFP-dsRNA-injected and non-injected insects, prior to H-tube olfactometer bioassay. […]

[5] = system: BPH; parameters: method as in Hernandez et al., 1989; Youn, 2002; settings: BPH and some other Hemiptera; ref Hernandez et al., 1989; Youn, 2002; cited from earlier work
[6] = pH 5.0, calculated from IC50, read-out: Ki
[7] = pH 7.4, calculated from IC50, read-out: Ki
[8] = Ki, pH 5.0, calculated from IC50
[9] = Ki, pH 7.4, calculated from IC50

| Molecule | Ki [1, 6] [µM] | IC50 ([1]; pH 5.0, read-out: IC50) [µM] | Ki [1, 7] [µM] | IC50 ([1]; pH 7.4, read-out: IC50) [µM] | IC50 ([1]; IC50, pH 5.0) [µM] | IC50 ([1]; IC50, pH 7.4) [µM] | Ki [1, 8] [µM] | Ki [1, 9] [µM] | further results |
| --- | --- | --- | --- | --- | --- | --- | --- | --- | --- |
| CCCCCCCCCCCCCCCC [Hexadecane] | 23.8 | 27.3 | 15.9 | 19 |  |  |  |  |  |
| CCCCCC=O [Hexanal] |  |  |  |  | 11 | 17.3 | 9.56 | 14.4 | binding affinity with NlugCSP7 [2]: weak affinities; behavioral response of BPH ([3]; 1 μl/mL): repellency; behavioral response of BPH ([3]; 10 μl/mL): attraction became weakened; behavioral response of BPH ([3]; 100 μl/mL): strongly behaved as attractant; behavior response of dsCSP8-injected (RNAi) BPH to attractant [4]: reduced significantly; also recorded: significantly inhibited; Electroantennogram response [5]: high Electroantennogram response |
| C=CC(C)(O)CCC=C(C)C (stereo not shown) [Linalool] |  |  |  |  | 36.9 | 23.4 | 32.2 | 19.5 |  |
| COC(=O)c1ccccc1 [Methyl benzoate] |  |  |  |  | 17.8 | 23.6 | 15.5 | 19.6 |  |
| CCCCCCCCCCCCCCCCCCC [Nonadecane] | 24.6 | 28.3 | 14.3 | 17.2 |  |  |  |  |  |
| C=C(C)[C@H]1CC=C(C)CC1 [R-(+)-limonene] | 12.6 | 14.4 | 13.2 | 15.9 |  |  |  |  |  |
| CC1=CCC(=C(C)C)CC1 [Terpinolene] |  |  |  |  | 31.2 | 25.6 | 27.2 | 21.3 |  |
| CCC/C=C/CO [Trans-2-hexen-1-ol] |  |  |  |  | 18.2 | 25.9 | 15.9 | 21.5 |  |
| CCC/C=C/C=O [Trans-2-hexenal] |  |  |  |  | 11.6 | 28 | < 10 | 23.3 | behavioral response of BPH ([3]; concentration not given): significant aversion |
| CC1=CC=C(C(C)C)CC1 [α-Terpinene] |  |  |  |  | 16.4 | 16.6 | 14.3 | 13.8 |  |
| CC1=CC[C@@H](C(C)(C)O)CC1 [α-Terpineol] |  |  |  |  | 15.5 | 24.1 | 13.5 | 20.1 |  |
| (–)-Limoonene | 17.8 | 20.4 | 20.4 | 24.4 |  |  |  |  |  |
| Farnesene | 173 | 199 | 44.8 | 53.8 |  |  |  |  | Ki ([1]; pH 5.0, calculated from IC50, listed as farnesene, read-out: Ki): > 40 µM; Ki ([1]; pH 7.4, calculated from IC50, listed as farnesene, read-out: Ki): > 40 µM |
